Experiment: REDUCE-IT change from baseline blood pressure (mixed effects model)
Assay type: in vivo, human
Settings: ITT
Method: Blood pressure was measured using a standardized process: • Patient sat for ≥5 minutes with feet flat on the floor and measurement arm supported so that the midpoint of the manometer cuff was at heart level; and • Used a mercury sphygmomanometer or automatic blood pressure device with an appropriately sized cuff with the bladder centered over the brachial artery.
Blood pressure was recorded to the nearest 2 mmHg mark on the manometer or to the nearest whole number on an automatic device. A blood pressure reading was repeated 1 to 2 minutes later, and the second reading recorded to the nearest 2 mmHg mark.
It is contemplated that a number of factors contribute to the significant reduction in the cardiovascular risk. Without intending to be bound by any particular theory, one of the contributing factors might relate to the dose and formulation of the icosapent ethyl administered to the patients, in marked contrast to previous studies of omega-3 fatty acid studies. An additional contributing factor could relate to the patients' blood pressure. […] These differences appear to be modest, but it is contemplated, that they might contribute to the benefits of icosapent ethyl. […]

CC/C=C\C/C=C\C/C=C\C/C=C\C/C=C\CCCC(=O)OCC [icosapent ethyl, eicosapentaenoic acid ethyl ester]
diastolic blood pressure, average placebo-corrected reduction from baseline: 0.5 mm Hg
systolic blood pressure, average placebo-corrected reduction from baseline: 1.3 mm Hg

Reference: patent publication US20200261391A1, “METHODS OF REDUCING THE RISK OF A CARDIOVASCULAR EVENT IN A STATIN-TREATED SUBJECT BY INCREASING SERUM AND PLASMA EPA AND DPA LEVELS” (Amarin Pharmaceuticals Ireland Limited, priority 2019, published 2020)
